Experimental findings from ChEMBL document CHEMBL1144238, “Identification and SAR around N-{2-[4-(2,3-dihydro-benzo[1,4]dioxin-2-ylmethyl)-[1,4]diazepan-1-yl]-ethyl}-2-phenoxy-nicotinamide, a selective alpha2C adrenergic receptor antagonist” (Bioorg Med Chem Lett, 2008) are described below.

The species entered for test [1] is Homo sapiens. In words: Selectivity for human recombinant adrenergic Alpha-2C receptor over human recombinant adrenergic alpha2B receptor by radioligand binding assay.
The target of test [2] is T1, Alpha-2C adrenergic receptor (Homo sapiens, UniProt P18825).
T1 sequence (P18825 whole entry): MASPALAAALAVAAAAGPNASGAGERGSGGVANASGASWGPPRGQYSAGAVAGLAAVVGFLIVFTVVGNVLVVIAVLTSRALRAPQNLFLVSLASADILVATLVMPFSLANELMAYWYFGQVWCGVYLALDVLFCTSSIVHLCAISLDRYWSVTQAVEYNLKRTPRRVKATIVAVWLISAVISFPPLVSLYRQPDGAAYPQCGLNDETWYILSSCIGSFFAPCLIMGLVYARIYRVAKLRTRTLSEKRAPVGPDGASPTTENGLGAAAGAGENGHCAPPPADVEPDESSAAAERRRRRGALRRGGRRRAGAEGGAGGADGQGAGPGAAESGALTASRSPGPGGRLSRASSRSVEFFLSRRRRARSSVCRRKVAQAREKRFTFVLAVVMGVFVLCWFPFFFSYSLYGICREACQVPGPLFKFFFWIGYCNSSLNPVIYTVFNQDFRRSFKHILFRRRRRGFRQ
In words: Binding affinity at human recombinant adrenergic Alpha-2C receptor expressed in CHO cells by radioligand binding assay. In kind it is cell-based.

The target in test [3] is T2, Alpha-2B adrenergic receptor (Homo sapiens, UniProt P18089).
T2 sequence (P18089 whole entry): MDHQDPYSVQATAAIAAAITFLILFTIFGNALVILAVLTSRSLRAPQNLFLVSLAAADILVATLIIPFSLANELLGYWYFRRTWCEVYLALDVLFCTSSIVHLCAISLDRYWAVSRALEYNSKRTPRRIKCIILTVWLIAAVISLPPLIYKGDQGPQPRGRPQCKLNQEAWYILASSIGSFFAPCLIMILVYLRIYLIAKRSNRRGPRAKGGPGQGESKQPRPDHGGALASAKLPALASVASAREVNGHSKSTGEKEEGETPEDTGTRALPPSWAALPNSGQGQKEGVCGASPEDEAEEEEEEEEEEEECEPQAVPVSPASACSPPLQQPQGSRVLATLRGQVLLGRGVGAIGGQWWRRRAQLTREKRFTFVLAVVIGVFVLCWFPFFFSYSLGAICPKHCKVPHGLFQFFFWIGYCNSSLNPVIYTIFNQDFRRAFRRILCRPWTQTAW
As to the kind of experiment: Binding affinity at human recombinant adrenergic alpha2B receptor expressed in CHO cells by radioligand binding assay. The class given is cell-based.

Test [4] deals with T3, Alpha-2A adrenergic receptor (Homo sapiens, UniProt P08913).
T3 sequence (P08913 whole entry): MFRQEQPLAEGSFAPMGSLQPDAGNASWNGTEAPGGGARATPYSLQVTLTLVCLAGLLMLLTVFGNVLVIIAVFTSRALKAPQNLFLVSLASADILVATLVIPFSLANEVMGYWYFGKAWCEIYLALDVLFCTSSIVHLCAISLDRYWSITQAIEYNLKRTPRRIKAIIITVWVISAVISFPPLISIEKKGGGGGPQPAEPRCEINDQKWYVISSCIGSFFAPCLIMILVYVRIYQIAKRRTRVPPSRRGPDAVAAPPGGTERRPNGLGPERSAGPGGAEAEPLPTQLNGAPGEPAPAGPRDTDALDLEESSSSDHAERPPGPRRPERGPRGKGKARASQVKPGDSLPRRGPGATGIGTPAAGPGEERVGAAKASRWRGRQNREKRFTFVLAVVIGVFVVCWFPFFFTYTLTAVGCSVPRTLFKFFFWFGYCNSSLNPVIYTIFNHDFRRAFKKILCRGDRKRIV
In words: Binding affinity at human recombinant adrenergic alpha2A receptor expressed in CHO cells by radioligand binding assay. The class given is cell-based.

For test [5], the species on record is Homo sapiens. In words: Selectivity for human recombinant adrenergic Alpha-2C receptor over human recombinant adrenergic alpha2A receptor by radioligand binding assay.
Test [6] deals with T1, Alpha-2C adrenergic receptor. As to the kind of experiment: Antagonist activity at human recombinant adrenergic Alpha-2C receptor expressed in CHO cells assessed as inhibition of NE-induced calcium mobilization by FLIPR. The class given is functional, cell-based.
Test [7] is filed under the species Homo sapiens. In words: Selectivity human recombinant adrenergic Alpha-2C receptor over human recombinant adrenergic alpha2B receptor by FLIPR.
For test [8], the species on record is Homo sapiens. In words: Selectivity human recombinant adrenergic Alpha-2C receptor over human recombinant adrenergic alpha2A receptor by FLIPR.
Test [9] concerns the target T3, Alpha-2A adrenergic receptor. In words: Antagonist activity at human recombinant adrenergic alpha2A receptor expressed in CHO cells assessed as inhibition of NE-induced calcium mobilization by FLIPR. In kind it is functional, cell-based.
The target of test [10] is T2, Alpha-2B adrenergic receptor. As to the kind of experiment: Antagonist activity at human recombinant adrenergic alpha2B receptor expressed in CHO cells assessed as inhibition of NE-induced calcium mobilization by FLIPR. In kind it is functional, cell-based.

Some results are limits rather than exact numbers.

For the compound `O=C(NCCN1CCCN(CC2COc3ccccc3O2)CC1)c1cccnc1` (stereo unspecified), the figures for the Ratio Ki in [1] and in [5] were 1 and 28, respectively. The inhibitory constant (Ki) turned out to be 15.7 nM in test [2], 17.9 nM in test [3] and 443 nM in test [4].

Turning to `c1ccc(Oc2ncccc2COCCN2CCCN(CC3COc4ccccc4O3)CC2)cc1` (stereo unspecified), the Ki in test [6] was 6.8 nM; in test [2] it was 2.5 nM; in test [9], 275 nM; in test [3] it was 69.5 nM; in test [10], 132 nM; in [4] it was 66.1 nM. Further, the Ratio Ki in test [1] is 28; in [7], 19; in test [8], 41; in test [5], 26.

Consider `O=C(NCCN1CCN(CC2COc3ccccc3O2)CC1)c1cccnc1Oc1ccccc1` (stereo unspecified), for which the Ratio Ki in test [1] came to 3; in test [5], 9. The figures for the Ki in [2], in test [3] and in test [4] were 3 nM, 8 nM and 27 nM, respectively.

As for `CC(C)(C)Nc1ncccc1C(=O)NCCN1CCCN(CC2COc3ccccc3O2)CC1` (stereo unspecified), the inhibition constant (Ki) was found to be 30.5 nM in test [6]; 0.5 nM in [2]; 366 nM in test [9]; 28 nM in [3]; 103 nM in test [10]; 138 nM in test [4]. Further, the Ratio Ki was found to be 58 in test [1], 3 in test [7], 12 in test [8] and 286 in [5].

As to `CCCCOc1cccc(C(=O)NCCN2CCCN(CC3COc4ccccc4O3)CC2)n1` (stereo unspecified), the Ki came to 3.8 nM in test [6]; 0.6 nM in test [2]; 48.4 nM in test [9]; 10.9 nM in test [3]; 14.1 nM in [10]; 118 nM in test [4]. The Ratio Ki in test [1] amounted to 18; in [7] it was 4; in test [8], 13; in test [5], 195.

On to `c1ccc(CN2CCN(CC3CCc4ccccc4O3)CC2)cc1` (stereo unspecified), for which the Ki worked out at 21.1 nM in test [6]; 19.6 nM in test [2]; 167 nM in test [9]; 72.8 nM in [3]; 180 nM in test [10]; 146 nM in [4]. The Ratio Ki in [1] stood at 4; in test [7] it was 9; in test [8], 8; in test [5], 7.

In the case of `O=C(NCCN1CCCN(C[C@@H]2COc3ccccc3O2)CC1)c1cccnc1Oc1ccccc1`, the Ratio Ki in test [1] turned out to be 12; in test [5], 53. In [2], the inhibition constant (Ki) is 9.2 nM.

Take `c1ccc(CN2CCN(CC3COc4ccccc4C3)CC2)cc1` (stereo unspecified): the Ki in [2], in test [3] and in test [4] was above 500 nM each time.

As for `N#Cc1cccc(Oc2ncccc2C(=O)NCCN2CCCN(CC3COc4ccccc4O3)CC2)c1` (stereo unspecified), the Ki in test [6] was 1.9 nM; in [2] it was 0.8 nM; in test [9], 501 nM; in [3], 36 nM; in test [10], 27.5 nM; in test [4], 208 nM. The Ratio Ki in test [1] came out at 48; in [7] it was 14; in [8], 262; in test [5], 275.

Consider `O=C(NCCN1CCCN(CC2COc3ccccc3O2)CC1)c1cccnc1Oc1ccccc1` (stereo unspecified), for which the Ki is 25 nM in test [6]; 5 nM in [2]; 474 nM in test [9]; 49 nM in [3]; 132 nM in test [10]; 220 nM in test [4]. Moreover, the Ratio Ki is 10 in [1], 5 in test [7], 19 in test [8] and 44 in [5].

For `COc1ccccc1N1CCN(CC2COc3ccccc3O2)CC1` (stereo unspecified), the inhibition constant (Ki) in test [6] is 23 nM; in test [2], 33 nM; in test [9], 167 nM; in test [3] it was 194 nM; in [10], 17 nM; in test [4], 506 nM. Moreover, the Ratio Ki in test [1] was 6; in test [7], 1; in test [8], 7; in [5], 15.

Turning to `CCCCOc1ncccc1C(=O)NCCN1CCCN(CC2COc3ccccc3O2)CC1` (stereo unspecified), the inhibition constant (Ki) in [6] was determined as 4.8 nM; in test [2], 0.8 nM; in [9], 73.6 nM; in [3], 10.5 nM; in test [10], 13.3 nM; in [4], 81 nM. In addition, the Ratio Ki is 13 in test [1], 3 in [7], 15 in test [8] and 103 in test [5].

For `c1ccc(Oc2ncccc2-c2noc(CN3CCCN(CC4COc5ccccc5O4)CC3)n2)cc1` (stereo unspecified), the Ki in test [6] was determined as 1.7 nM; in test [2], 1.9 nM; in test [9], 15.4 nM; in test [3] it was 15.3 nM; in [10] it was 5.2 nM; in test [4], 44.8 nM. In addition, the Ratio Ki in test [1] was found to be 8; in test [7], 3; in test [8], 9; in test [5], 23.
